{
  "source": "patent US6387950B2",
  "about": "“Treatment of tumors with RARα selective retinoid compounds in combination with other anti-tumor agents” (Allergan Sales, Inc., priority 2000, dated 2002)",
  "origin": "cited, not measured here",
  "key": {"[1]": {"test_system": "carcinoma cell lines", "settings": "in some of the cell lines; Fanjul et al. 1996; cited from earlier work"}, "[2]": {"biological_target": "T1, RARγ receptors (Homo sapiens, UniProt P13631)", "T1 sequence (P13631 1-454)": "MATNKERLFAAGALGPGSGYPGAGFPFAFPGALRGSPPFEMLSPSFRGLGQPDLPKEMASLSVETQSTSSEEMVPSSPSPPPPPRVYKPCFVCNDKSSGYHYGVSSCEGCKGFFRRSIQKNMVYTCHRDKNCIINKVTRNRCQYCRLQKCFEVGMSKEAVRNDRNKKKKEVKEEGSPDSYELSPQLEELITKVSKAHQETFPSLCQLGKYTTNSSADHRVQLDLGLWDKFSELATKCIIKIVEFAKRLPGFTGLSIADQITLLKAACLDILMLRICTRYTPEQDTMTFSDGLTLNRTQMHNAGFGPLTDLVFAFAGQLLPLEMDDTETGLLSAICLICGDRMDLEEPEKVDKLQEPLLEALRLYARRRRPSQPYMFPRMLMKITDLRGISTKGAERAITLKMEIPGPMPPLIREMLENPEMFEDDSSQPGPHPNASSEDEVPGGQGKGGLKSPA", "settings": "Fanjul et al. 1996; cited from earlier work"}, "[3]": {"test_system": "MDA-MB 231 human carcinoma cell lines", "settings": "Kurbacher et al. 1996; cited from earlier work"}, "[4]": {"test_system": "MCF-7 human carcinoma cell lines", "settings": "Kurbacher et al. 1996; cited from earlier work"}, "[5]": {"test_system": "MCF-7 human breast cancer lines", "settings": "Toma et al. 1997; cited from earlier work"}},
  "data": [
    {"compound": "COC(=O)c1ccc(/C(C)=C/c2ccc3c(c2)C(C)(C)CCC3(C)C)cc1", "note": "[SRI 11220]", "values": [
      {"measurement": "anti-proliferative activity in combination with interferon", "setting": "[1]", "value": "synergistic"},
      {"measurement": "receptor activity", "setting": "[2]", "value": "RARγ agonist"}
    ]},
    {"compound": "O=C1O[C@H]([C@@H](O)CO)C(O)=C1O", "note": "[vitamin C]", "values": [
      {"measurement": "action with certain chemotherapeutic anti-tumor agents", "setting": "[3]", "value": "synergistic action"},
      {"measurement": "action with certain chemotherapeutic anti-tumor agents", "setting": "[4]", "value": "synergistic action"}
    ]},
    {"compound": "CC1=C(/C=C/C(C)=C/C=C/C(C)=C/C(=O)O)C(C)(C)CCC1", "note": "[all trans retinoic acid]", "values": [
      {"measurement": "effect in combination with tamoxifen (TAM)", "setting": "[5]", "value": "synergistic effect"},
      {"measurement": "effect in combination with α interferon (α IFN)", "setting": "[5]", "value": "synergistic effects"}
    ]}
  ]
}
